pEC50, pKi: −log10 of the molar value.
These molecules were tested against T1, S1P1 (Homo sapiens (Human), UniProt P21453) (assay: 35S-GTPγS binding, S1P1 membranes). Conditions: membranes from CHO cells expressing S1P1.
Assay type: biochemical
Description: Receptor binding assay: Membranes were prepared from CHO cells expressing S1P1 or S1P3 for use in ligand and 35S-GTPγS binding studies. Cells were suspended in 50 mM TRIS, pH 7.4, 2 mM EDTA, 250 mM Sucrose (buffer A) and 1× Complete protease inhibitor cocktail (Roche), and disrupted at 4° C. by N2 decompression using a cell disruption bomb (Parr Instrument). Following centrifugation at 1000 RPM for 10 min at 4° C., the supernatant was suspended in buffer A and centrifuged again at 19000 RPM for 60 min at 4° C. The pellet was then suspended in 10 mM HEPES, pH 7.4, 1 mM EDTA, 250 mM Sucrose (Buffer B), and 1× Complete EDTA-free protease inhibitor cocktail and homogenized using a potter. Membranes were flash frozen in liquid N2 and stored at −80° C. [33P]sphingosine 1-phosphate (3000 Ci/mmol; American Radiolabeled Chemicals, Inc.) was added to test compounds in DMSO. […] Specific binding was calculated by subtracting remaining radioactivity in the presence of 1000-fold excess of unlabeled S1P. Binding data were analyzed using the GraphPad Prism program.
Measurements of 35S-GTPγS Binding:
After 60 min incubation at 30° C. on a shaker, plates were centrifuged for 10 min at 2000 RPM. […] Triplicate samples were averaged and expressed as % response relative to S1P activation in absence of compound (n=2).

T1 sequence (P21453 whole entry, species assumed): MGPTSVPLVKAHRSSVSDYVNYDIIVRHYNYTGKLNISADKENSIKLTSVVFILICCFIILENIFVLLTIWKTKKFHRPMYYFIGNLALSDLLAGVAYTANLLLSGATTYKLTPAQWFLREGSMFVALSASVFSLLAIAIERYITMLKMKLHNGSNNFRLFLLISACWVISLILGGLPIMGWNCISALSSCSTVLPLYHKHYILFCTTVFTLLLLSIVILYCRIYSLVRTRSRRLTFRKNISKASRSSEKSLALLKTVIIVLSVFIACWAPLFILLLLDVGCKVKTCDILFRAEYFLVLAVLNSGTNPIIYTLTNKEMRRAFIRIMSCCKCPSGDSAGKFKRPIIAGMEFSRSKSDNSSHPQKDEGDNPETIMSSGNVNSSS

Row | SMILES | pEC50
1 | CC1CCCCN1c1ccc(-c2nc(-c3ccc4[nH]cnc4c3)no2)cc1C#N (stereo not shown) [Compound 2, 5-[3-(1H-benzimidazol-5-yl)-1,2,4-oxadiazol-5-yl]-2-(2-methylpiperidin-1-yl)benzonitrile] | 8.00
2 | Cc1cc(-c2nc(-c3ccc4[nH]cnc4c3)no2)cnc1N1CCCCC1C (stereo not shown) [Compound 3, 5-{5-[5-methyl-6-(2-methylpiperidin-1-yl)pyridin-3-yl]-1,2,4-oxadiazol-3-yl}-1H-benzimidazole] | 7.03
3 | COCc1cc(-c2nc(-c3ccc4[nH]cnc4c3)no2)ccc1N1CCCCC1C (stereo not shown) [Compound 6, 5-{5-[3-(methoxymethyl)-4-(2-methylpiperidin-1-yl)phenyl]-1,2,4-oxadiazol-3-yl}-1H-benzimidazole] | 8.60
4 | CC1CCCCN1c1ccc(-c2nc(-c3cc(F)c4[nH]cnc4c3)no2)cc1C(F)(F)F (stereo not shown) [Compound 7, 7-fluoro-5-{5-[4-(2-methylpiperidin-1-yl)-3-(trifluoromethyl)phenyl]-1,2,4-oxadiazol-3-yl}-1H-benzimidazole] | 7.85
5 | Cc1cc(-c2noc(-c3ccc(N4CCCCC4C)c(C(F)(F)F)c3)n2)cc2nc[nH]c12 (stereo not shown) [Compound 8, 7-methyl-5-{5-[4-(2-methylpiperidin-1-yl)-3-(trifluoromethyl)phenyl]-1,2,4-oxadiazol-3-yl}-1H-benzimidazole] | 8.15
6 | COCc1cc(-c2nc(-c3cc(F)c4[nH]cnc4c3)no2)ccc1-c1ccccc1C [Compound 9, 7-fluoro-5-{5-[2-(methoxymethyl)-2′-methylbiphenyl-4-yl]-1,2,4-oxadiazol-3-yl}-1H-benzimidazole] | 9.30
7 | Cc1cc(-c2nc(-c3ccc4c(c3)CN(C(=O)OC(C)(C)C)CC4)no2)cnc1N1CCCC1C (stereo not shown) [Compound 13, tert-butyl 7-{5-[5-methyl-6-(2-methylpyrrolidin-1-yl)pyridin-3-yl]-1,2,4-oxadiazol-3-yl}-3,4-dihydroisoquinoline-2(1H)-carboxylate] | < 4.70
8 | Cc1cc(-c2nc(-c3ccc4c(c3)CNCC4)no2)cnc1N1CCCC1C (stereo not shown) [Compound 14, 7-{5-[5-methyl-6-(2-methylpyrrolidin-1-yl)pyridin-3-yl]-1,2,4-oxadiazol-3-yl}-1,2,3,4-tetrahydroisoquinoline] | 7.19
9 | Cc1ccccc1-c1ccc(-c2nc(-c3ccc4c(ccn4C)c3)no2)cc1C [Compound 17, 5-[5-(2,2′-dimethylbiphenyl-4-yl)-1,2,4-oxadiazol-3-yl]-1-methyl-1H-indole] | 5.88
10 | Cc1ccccc1-c1ccc(-c2nc(-c3ccc4c(ccn4CC(=O)O)c3)no2)cc1C [Compound 18, {5-[5-(2,2′-dimethylbiphenyl-4-yl)-1,2,4-oxadiazol-3-yl]-1H-indol-1-yl}acetic acid] | 5.52
11 | CC1CCCCN1c1ccc(-c2nc(-c3ccc4c(ccn4C)c3)no2)cc1[N+](=O)[O-] (stereo not shown) [Compound 19, 1-methyl-5-{5-[4-(2-methylpiperidin-1-yl)-3-nitrophenyl]-1,2,4-oxadiazol-3-yl}-1H-indole] | 5.90
12 | COc1cc2[nH]c(C(=O)O)cc2cc1-c1noc(-c2ccc(N3CCCCC3C)c(C(F)(F)F)c2)n1 (stereo not shown) [Compound 21, 6-methoxy-5-{5-[4-(2-methylpiperidin-1-yl)-3-(trifluoromethyl)phenyl]-1,2,4-oxadiazol-3-yl}-1H-indole-2-carboxylic acid] | 6.33
13 | CC1CCCCN1c1ccc(-c2nc(-c3ccc4[nH]ccc4c3)no2)cc1C#N (stereo not shown) [Compound 23, 5-[3-(1H-indol-5-yl)-1,2,4-oxadiazol-5-yl]-2-(2-methylpiperidin-1-yl)benzonitrile] | 7.38
14 | COCc1cc(-c2nc(-c3cc(C)c4[nH]cnc4c3)no2)ccc1-c1ccccc1C [Compound 26, 5-{5-[2-(methoxymethyl)-2′-methylbiphenyl-4-yl]-1,2,4-oxadiazol-3-yl}-7-methyl-1H-benzimidazole] | 7.42
15 | C[C@@H]1CCCCN1c1ccc(-c2nc(-c3ccc4[nH]cnc4c3)no2)cc1C(F)(F)F [Compound 28, 5-{5-[4-[(2R)-2-methylpiperidin-1-yl]-3-(trifluoromethyl)phenyl]-1,2,4-oxadiazol-3-yl}-1H-benzimidazole] | 7.64
16 | C[C@H]1CCCCN1c1ccc(-c2nc(-c3ccc4[nH]cnc4c3)no2)cc1C(F)(F)F [Compound 29, 5-{5-[4-[(2S)-2-methylpiperidin-1-yl]-3-(trifluoromethyl)phenyl]-1,2,4-oxadiazol-3-yl}-1H-benzimidazole] | 8.52
17 | CCc1ccccc1-c1ccc(-c2nc(-c3ccc4c(c3)CN(CC(=O)O)CC4)no2)cc1COC [Compound 30, [7-{5-[2′-ethyl-2-(methoxymethyl)biphenyl-4-yl]-1,2,4-oxadiazol-3-yl}-3,4-dihydroisoquinolin-2(1H)-yl]acetic acid] | 8.36
18 | CCc1ccccc1-c1ccc(-c2nc(-c3ccc4c(c3)CN(CCC(=O)O)CC4)no2)cc1COC [Compound 31, 3-[7-{5-[2′-ethyl-2-(methoxymethyl)biphenyl-4-yl]-1,2,4-oxadiazol-3-yl}-3,4-dihydroisoquinolin-2(1H)-yl]propanoic acid] | 8.60
19 | COCc1cc(-c2nc(-c3ccc4cc(C(=O)O)[nH]c4c3)no2)ccc1-c1ccccc1C [Compound 32, 6-{5-[2-(methoxymethyl)-2′-methylbiphenyl-4-yl]-1,2,4-oxadiazol-3-yl}-1H-indole-2-carboxylic acid] | 7.51
20 | CCC1CCCCN1c1ccc(-c2nc(-c3ccc4c(c3)CN(CCC(=O)O)CC4)no2)cc1COC (stereo not shown) [Compound 33, 3-[7-{5-[4-(2-ethylpiperidin-1-yl)-3-(methoxymethyl)phenyl]-1,2,4-oxadiazol-3-yl}-3,4-dihydroisoquinolin-2(1H)-yl]propanoic acid] | 9.05
21 | CCC1CCCCN1c1ccc(-c2nc(-c3ccc4c(c3)CN(CC(=O)O)CC4)no2)cc1COC (stereo not shown) [Compound 34, [7-{5-[4-(2-ethylpiperidin-1-yl)-3-(methoxymethyl)phenyl]-1,2,4-oxadiazol-3-yl}-3,4-dihydroisoquinolin-2(1H)-yl]acetic acid] | 8.71

Each molecule was assayed against T1, S1P1 (assay: Receptor binding assay ([33P]sphingosine 1-phosphate, SPA) on S1P1 membranes). Conditions: membranes from CHO cells expressing S1P1.
Description: Receptor binding assay: Membranes were prepared from CHO cells expressing S1P1 or S1P3 for use in ligand and 35S-GTPγS binding studies. Cells were suspended in 50 mM TRIS, pH 7.4, 2 mM EDTA, 250 mM Sucrose (buffer A) and 1× Complete protease inhibitor cocktail (Roche), and disrupted at 4° C. by N2 decompression using a cell disruption bomb (Parr Instrument). Following centrifugation at 1000 RPM for 10 min at 4° C., the supernatant was suspended in buffer A and centrifuged again at 19000 RPM for 60 min at 4° C. The pellet was then suspended in 10 mM HEPES, pH 7.4, 1 mM EDTA, 250 mM Sucrose (Buffer B), and 1× Complete EDTA-free protease inhibitor cocktail and homogenized using a potter. Membranes were flash frozen in liquid N2 and stored at −80° C. [33P]sphingosine 1-phosphate (3000 Ci/mmol; American Radiolabeled Chemicals, Inc.) was added to test compounds in DMSO. Membranes and WGA SPA beads (GE Healthcare) were added to give a final volume of 100 μl in 96-well plates with assay concentrations of […] [33P]sphingosine 1-phosphate (respectively for S1P1 or S1P3), 50 mM HEPES, pH 7.5, 5 mM MgCl2, 100 mM NaCl, 0.4% fatty acid-free BSA, 1-5 μg/well of proteins and 100 μg/well of WGA SPA beads. Binding was performed for 60 min at RT on a shaker and bound radioactivity was measured on a PerkinElmer 1450 MicroBeta counter. Specific binding was calculated by subtracting remaining radioactivity in the presence of 1000-fold excess of unlabeled S1P. Binding data were analyzed using the GraphPad Prism program.

Row | SMILES | pKi
22 | Cc1cc(-c2nc(-c3ccc4[nH]cnc4c3)no2)cnc1N1CCCCC1C (stereo not shown) [Compound 3, 5-{5-[5-methyl-6-(2-methylpiperidin-1-yl)pyridin-3-yl]-1,2,4-oxadiazol-3-yl}-1H-benzimidazole] | 7.42
23 | COCc1cc(-c2nc(-c3ccc4c(c3)CN(CCC(=O)O)CC4)no2)ccc1-c1ccccc1C [Compound 35, 3-[7-{5-[2-(methoxymethyl)-2′-methylbiphenyl-4-yl]-1,2,4-oxadiazol-3-yl}-3,4-dihydroisoquinolin-2(1H)-yl]propanoic acid] | 9.64
24 | Cc1ccccc1-c1ccc(-c2nc(-c3ccc4c(c3)CN(CC(=O)O)CC4)no2)cc1C(F)(F)F [Compound 36, [7-{5-[2′-methyl-2-(trifluoromethyl)biphenyl-4-yl]-1,2,4-oxadiazol-3-yl}-3,4-dihydroisoquinolin-2(1H)-yl]acetic acid] | 9.31
25 | CC1CCCCN1c1ccc(-c2nc(-c3ccc4c(c3)CN(CCC(=O)O)CC4)no2)cc1C(F)(F)F (stereo not shown) [Compound 37, 3-[7-{5-[4-(2-methylpiperidin-1-yl)-3-(trifluoromethyl)phenyl]-1,2,4-oxadiazol-3-yl}-3,4-dihydroisoquinolin-2(1H)-yl]propanoic acid] | 9.12
26 | CC1CCCCN1c1ccc(-c2nc(-c3ccc4c(c3)CN(CC(=O)O)CC4)no2)cc1C(F)(F)F (stereo not shown) [Compound 38, [7-{5-[4-(2-methylpiperidin-1-yl)-3-(trifluoromethyl)phenyl]-1,2,4-oxadiazol-3-yl}-3,4-dihydroisoquinolin-2(1H)-yl]acetic acid] | 9.10
27 | Cc1ccccc1-c1ccc(-c2nc(-c3ccc4c(c3)CN(CCC(=O)O)CC4)no2)cc1C(F)(F)F [Compound 39, 3-[7-{5-[2′-methyl-2-(trifluoromethyl)biphenyl-4-yl]-1,2,4-oxadiazol-3-yl}-3,4-dihydroisoquinolin-2(1H)-yl]propanoic acid] | 9.22
28 | COCc1cc(-c2nc(-c3ccc4c(c3)CCN(CCC(=O)O)C4)no2)ccc1-c1ccccc1C [Compound 40, 3-{6-[5-(2-Methoxymethyl-2′-methyl-biphenyl-4-yl)-[1,2,4]oxadiazol-3-yl]-3,4-dihydro-1H-isoquinolin-2-yl}-propionic acid] | 8.96

From patent publication US8741923B2, “Oxadiazole fused heterocyclic derivatives useful for the treatment of multiple sclerosis” (Merck Serono SA, priority 2008, dated 2014)
